Experimental data taken from US7109213B2, “Aminopiperidine compounds, process for their preparation, and pharmaceutical compositions containing them” (Glaxo Group Limited, priority 2002, dated 2006).

How the values were obtained:
Assay in all cases: MIC of test compounds against various organisms
Assay type in all cases: cell-based
E. coli 7623 = details: Escherichia coli, range stated for all organisms of the panel
Excerpt: (§1) The MIC (μg/ml) of test compounds against various organisms may be determined: S. epidermidis CL7, S. aureus WCUH29, S. pneumoniae 1629, S. pyogenes CN10, H. influenzae ATCC49247, E.faecalis 2, E. faecium 8, M. catarrhalis Ravisio, E. coli 7623.

E. faecium 8 = details: Enterococcus faecium, range stated for all organisms of the panel
Excerpt: as §1

E.faecalis 2 = details: Enterococcus faecalis, range stated for all organisms of the panel
Excerpt: as §1

H. influenzae ATCC49247 = details: Haemophilus influenzae, range stated for all organisms of the panel
Excerpt: as §1

M. catarrhalis Ravisio = details: Moraxella catarrhalis, range stated for all organisms of the panel
Excerpt: as §1

S. aureus WCUH29 = details: Staphylococcus aureus, range stated for all organisms of the panel
Excerpt: as §1

S. epidermidis CL7 = details: Staphylococcus epidermidis, range stated for all organisms of the panel
Excerpt: as §1

S. pneumoniae 1629 = details: Streptococcus pneumoniae, range stated for all organisms of the panel
Excerpt: as §1

S. pyogenes CN10 = details: Streptococcus pyogenes, range stated for all organisms of the panel
Excerpt: as §1

Measured: MIC

COc1ccc2nccc([C@@H](O)CN3CCC(NCc4cnc5snnc5c4)C(F)C3)c2n1 (single isomer, unassigned) [Example 3]
0.06 to 16 µg/mL: all assays above
